In ChEMBL document CHEMBL3124929, “Novel S1P(1) receptor agonists--part 3: from thiophenes to pyridines” (J Med Chem, 2014):

Experiments:
[1] = Volume of distribution at steady state in Wistar rat at 0.5 mg/kg, iv by LC-MS/MS analysis; type: ADME, organism-based; parameters: dose 0.5 mg/kg, route intravenous; details: in vivo, read-out: Vdss
[2] = AUC (0 to infinity) in Wistar rat at 0.5 mg/kg, iv by LC-MS/MS analysis; type: ADME, organism-based; parameters: time infinity, dose 0.5 mg/kg, route intravenous; details: plasma
[3] = Oral bioavailability in Wistar rat at 10 mg/kg by LC-MS/MS analysis; type: ADME, organism-based; details: in vivo
[4] = AUC (0 to 24 hrs) in Wistar rat at 10 mg/kg, po by LC-MS/MS analysis; type: ADME, organism-based; parameters: time < 24 hr, dose 10 mg/kg, route oral; details: plasma
[5] = Tmax in Wistar rat at 10 mg/kg, po by LC-MS/MS analysis; type: ADME, organism-based; parameters: dose 10 mg/kg, route oral; details: in vivo
[6] = Cmax in Wistar rat at 10 mg/kg, po by LC-MS/MS analysis; type: ADME, organism-based; parameters: dose 10 mg/kg, route oral; details: in vivo
[7] = Drug uptake in Wistar rat brain at 10 mg/kg, po after 24 hrs; type: ADME, organism-based; parameters: dose 10 mg/kg, route oral; details: read-out: Drug uptake
[8] = Drug uptake in Wistar rat brain at 10 mg/kg, po after 6 hrs; type: ADME, organism-based; parameters: dose 10 mg/kg, route oral; details: read-out: Drug uptake
[9] = Drug uptake in Wistar rat brain at 10 mg/kg, po after 2 hrs; type: ADME, organism-based; parameters: dose 10 mg/kg, route oral; details: read-out: Drug uptake
[10] = Plasma concentration in Wistar rat at 10 mg/kg, po after 2 hrs; type: ADME, organism-based; parameters: dose 10 mg/kg, route oral
[11] = Plasma concentration in Wistar rat at 10 mg/kg, po after 24 hrs; type: ADME, organism-based; parameters: dose 10 mg/kg, route oral
[12] = Plasma concentration in Wistar rat at 10 mg/kg, po after 6 hrs; type: ADME, organism-based; parameters: dose 10 mg/kg, route oral
[13] = Oral bioavailability in Wistar rat at 1 mg/kg by LC-MS/MS analysis; type: ADME, organism-based; details: in vivo
[14] = AUC (0 to 24 hrs) in Wistar rat at 1 mg/kg, po by LC-MS/MS analysis; type: ADME, organism-based; parameters: time < 24 hr, dose 1 mg/kg, route oral; details: plasma
[15] = Tmax in Wistar rat at 1 mg/kg, po by LC-MS/MS analysis; type: ADME, organism-based; parameters: dose 1 mg/kg, route oral; details: in vivo
[16] = Cmax in Wistar rat at 1 mg/kg, po by LC-MS/MS analysis; type: ADME, organism-based; parameters: dose 1 mg/kg, route oral; details: in vivo
[17] = Tmax in Wistar rat brain at 10 mg/kg, po; type: ADME, organism-based; parameters: dose 10 mg/kg, route oral
[18] = Tmax in Wistar rat plasma at 10 mg/kg, po; type: ADME, organism-based; parameters: dose 10 mg/kg, route oral
[19] = Volume of distribution at steady state in cynomolgus monkey at 1 mg/kg, iv by LC-MS/MS analysis; type: ADME, organism-based, Macaca fascicularis; parameters: dose 1 mg/kg, route intravenous; details: in vivo, read-out: Vdss
[20] = AUC (0 to infinity) in cynomolgus monkey at 1 mg/kg, iv by LC-MS/MS analysis; type: ADME, organism-based, Macaca fascicularis; parameters: time infinity, dose 1 mg/kg, route intravenous; details: plasma
[21] = Volume of distribution at steady state in Beagle dog at 1 mg/kg, iv by LC-MS/MS analysis; type: ADME, organism-based, Canis lupus familiaris; parameters: dose 1 mg/kg, route intravenous; details: in vivo, read-out: Vdss
[22] = AUC (0 to infinity) in Beagle dog at 1 mg/kg, iv by LC-MS/MS analysis; type: ADME, organism-based, Canis lupus familiaris; parameters: time infinity, dose 1 mg/kg, route intravenous; details: plasma
[23] = Volume of distribution at steady state in Wistar rat at 1 mg/kg, iv by LC-MS/MS analysis; type: ADME, organism-based; parameters: dose 1 mg/kg, route intravenous; details: in vivo, read-out: Vdss
[24] = AUC (0 to infinity) in Wistar rat at 1 mg/kg, iv by LC-MS/MS analysis; type: ADME, organism-based; parameters: time infinity, dose 1 mg/kg, route intravenous; details: plasma
[25] = Oral bioavailability in cynomolgus monkey at 1 mg/kg by LC-MS/MS analysis; type: ADME, organism-based, Macaca fascicularis; details: in vivo
[26] = AUC (0 to 24 hrs) in cynomolgus monkey at 1 mg/kg, po by LC-MS/MS analysis; type: ADME, organism-based, Macaca fascicularis; parameters: time < 24 hr, dose 1 mg/kg, route oral; details: plasma
[27] = Oral bioavailability in Beagle dog at 3 mg/kg by LC-MS/MS analysis; type: ADME, organism-based, Canis lupus familiaris; details: in vivo
[28] = AUC (0 to 24 hrs) in Beagle dog at 3 mg/kg, po by LC-MS/MS analysis; type: ADME, organism-based, Canis lupus familiaris; parameters: time < 24 hr, dose 3 mg/kg, route oral; details: plasma
[29] = Tmax in Beagle dog at 3 mg/kg, po by LC-MS/MS analysis; type: ADME, organism-based, Canis lupus familiaris; parameters: dose 3 mg/kg, route oral; details: in vivo
[30] = Cmax in Beagle dog at 3 mg/kg, po by LC-MS/MS analysis; type: ADME, organism-based, Canis lupus familiaris; parameters: dose 3 mg/kg, route oral; details: in vivo
[31] = AUC (0 to 32 hrs) in Wistar rat at 10 mg/kg, po by LC-MS/MS analysis; type: ADME, organism-based; parameters: time < 32 hr, dose 10 mg/kg, route oral; details: plasma
[32] = Cmax in cynomolgus monkey at 1 mg/kg, po by LC-MS/MS analysis; type: ADME, organism-based, Macaca fascicularis; parameters: dose 1 mg/kg, route oral; details: in vivo
[33] = Tmax in cynomolgus monkey at 1 mg/kg, po by LC-MS/MS analysis; type: ADME, organism-based, Macaca fascicularis; parameters: dose 1 mg/kg, route oral; details: in vivo
[34] = Plasma concentration in Wistar rat at 10 mg/kg, po after 3 hrs; type: ADME, organism-based; parameters: dose 10 mg/kg, route oral

concentration at 24 h [7] | concentration at 6 h [8] | concentration at 2 h [9] | concentration at 2 h [10] | concentration at 24 h [11] | concentration at 6 h [12] | SMILES | also measured
 |  |  |  |  |  | CCc1cc(-c2noc(-c3cc(C)nc(C(CC)CC)c3)n2)cc(C)c1OC[C@@H](O)CNC(=O)CO | Vd [1]: 3.4 L/kg; AUC(0-inf) [2]: 0.0699 µg·h/mL; bioavailability [3]: 126%; AUC(0-t) at 24 h [4]: 1.76 µg·h/mL; Tmax [5]: 0.5 h; Cmax [6]: 0.804 µg/mL
0.034 µg/mL | 0.271 µg/mL | 0.435 µg/mL | 0.608 µg/mL | 0.022 µg/mL | 0.254 µg/mL | CCc1cc(-c2noc(-c3cc(C)nc(N(CC)CC)c3)n2)cc(C)c1OC[C@@H](O)CO | 
0.002 µg/mL | 0.215 µg/mL | 0.6 µg/mL | 0.82 µg/mL | 0.004 µg/mL | 0.315 µg/mL | CCc1cc(-c2nnc(-c3cc(C)nc(N(CC)CC)c3)o2)cc(C)c1OC[C@@H](O)CO | 
 |  |  |  |  |  | CCc1cc(-c2noc(-c3cc(C)nc(C4CCCC4)c3)n2)cc(C)c1OC[C@@H](O)CNC(=O)CO | Vd [1]: 7.3 L/kg; AUC(0-inf) [2]: 0.566 µg·h/mL; bioavailability [13]: 39%; AUC(0-t) at 24 h [14]: 0.436 µg·h/mL; Tmax [15]: 3 h; Cmax [16]: 0.049 µg/mL
0.487 µg/mL | 0.653 µg/mL | 0.269 µg/mL | 2.17 µg/mL | 0.412 µg/mL | 1.78 µg/mL | CCc1cc(-c2noc(-c3cc(C)nc(N(CC)CC)c3)n2)cc(C)c1OC[C@@H](O)CNC(=O)CO | Tmax [17]: 6 h; Tmax [18]: 2 h; Vd [19]: 1.1 L/kg; AUC(0-inf) [20]: 5.45 µg·h/mL; Vd [21]: 1.2 L/kg; AUC(0-inf) [22]: 3.35 µg·h/mL; Vd [23]: 3.5 L/kg; AUC(0-inf) [24]: 3.2 µg·h/mL; bioavailability [25]: 16%; AUC(0-t) at 24 h [26]: 0.866 µg·h/mL; bioavailability [27]: 32%; AUC(0-t) at 24 h [28]: 3.25 µg·h/mL; Tmax [29]: 1 h; Cmax [30]: 0.546 µg/mL; AUC(0-t) at 32 h [31]: 16.5 µg·h/mL; bioavailability [3]: 52%; Tmax [5]: 2 h; Cmax [6]: 1.09 µg/mL; Cmax [32]: 0.097 µg/mL; Tmax [33]: 2 h
0.301 µg/mL | 0.369 µg/mL | 0.14 µg/mL | 0.875 µg/mL | 0.23 µg/mL | 0.918 µg/mL | CCc1cc(-c2nc(-c3cc(C)nc(N(CC)CC)c3)no2)cc(C)c1OC[C@@H](O)CNC(=O)CO | 
0.003 µg/mL | 0.052 µg/mL | 0.046 µg/mL | 0.815 µg/mL | 0.008 µg/mL | 0.51 µg/mL | CCc1cc(-c2nnc(-c3cc(C)nc(N(CC)CC)c3)o2)cc(C)c1OC[C@@H](O)CNC(=O)CO | 
 |  |  |  | 0.009 µM | 1.07 µM | CCc1cc(-c2noc(-c3cc(C4CCCC4)cc(C)n3)n2)cc(C)c1OC[C@@H](O)CNC(=O)CO | concentration at 3 h [34]: 1.89 µM
 |  |  |  | 0.8 µM | 3.69 µM | CCc1cc(-c2noc(-c3cc(C)c(C4CCCC4)cn3)n2)cc(C)c1OC[C@@H](O)CNC(=O)CO | concentration at 3 h [34]: 4.91 µM
